These results are taken from patent US12528814B2, “Bifunctional degraders of interleukin-1 receptor-associated kinases and therapeutic use thereof” (NURIX THERAPEUTICS, INC., priority 2020, dated 2026).

Assay [1] deals with T1, IRAK4 (Homo sapiens (Human), UniProt Q9NWZ3). The assay can be described thus: IRAK4 Biochemical HTRF Kinase Assay. The conditions noted are these: read-out: IRAK4 HTRF biochemical: IC50. A digest of the protocol: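 IC50 values derive from non-linear regression of sixteen concentrations in duplicate. Kinase reaction ran 90 min at ambient temperature after adding 5 μM STK-S1 substrate, 10 mM ATP and 10 mM MgCl2 (reaction-solution levels, pre-dilution to 10 μl); phospho-peptide detected by HTRF after 60 min.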
(In general: In TR-FRET formats the signal depends on donor and acceptor labels being close together.)
Target sequence in this assay (Q9NWZ3 whole entry, species assumed): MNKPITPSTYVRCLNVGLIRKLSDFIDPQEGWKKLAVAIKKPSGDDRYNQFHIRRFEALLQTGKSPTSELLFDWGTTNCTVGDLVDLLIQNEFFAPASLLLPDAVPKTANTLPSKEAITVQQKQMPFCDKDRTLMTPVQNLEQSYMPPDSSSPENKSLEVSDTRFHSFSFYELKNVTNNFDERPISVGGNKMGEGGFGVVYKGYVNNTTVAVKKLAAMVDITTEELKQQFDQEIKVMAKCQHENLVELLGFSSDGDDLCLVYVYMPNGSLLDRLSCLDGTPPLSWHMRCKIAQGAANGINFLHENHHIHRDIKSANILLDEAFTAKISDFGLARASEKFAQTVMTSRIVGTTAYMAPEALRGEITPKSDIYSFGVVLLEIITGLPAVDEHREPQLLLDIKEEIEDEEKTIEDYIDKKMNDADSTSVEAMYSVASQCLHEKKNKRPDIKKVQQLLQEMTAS

The target in assay [2] is T1, IRAK4. As to the kind of experiment: IRAK4 Degradation HiBiT Assay. The conditions noted are these: HiBiT-tagged Jurkat cells, 4 hrs; for Dmax: Jurkat; for DC50: read-out: Cellular IRAK4 HiBiT: DC50. Background: The HiBiT peptide binds its large partner to form an active luciferase.
Target sequence in this assay (Q9NWZ3 whole entry): as the sequence (Q9NWZ3 whole entry, species assumed) above
Where [3] appears, read: read-out: Cellular IRAK4 HiBiT: Dmax, Table 4.
[4] abbreviates: read-out: Cellular IRAK4 HiBiT: Dmax, Table 5, multiple runs.

Like-named read-outs stand apart in the source and are kept apart here.

In general, IC50 refers to the concentration needed to halve the response being measured. As usually defined, the Dmax is the greatest extent of degradation seen. A word on the DC50: it is the midpoint of the concentration-degradation curve. Consider `CN[C@@H](C)C(=O)N[C@H](C(=O)N1C[C@@H](NC(=O)CCOCCC(=O)N2CCN(c3nnc(-c4cnc(-c5ccc6cc(C#N)cnn56)cc4NC(C)C)s3)CC2)C[C@H]1C(=O)N[C@@H]1CCCc2ccccc21)C1CCCCC1` [Example 54, (2S,4S)-4-(3-(3-(4-(5-(6-(3-cyanopyrrolo[1,2-b]pyridazin-7-yl)-4-(isopropylamino)pyridin-3-yl)-1,3,4-thiadiazol-2-yl)piperazin-1-yl)-3-oxopropoxy)propanamido)-1-((S)-2-cyclohexyl-2-((S)-2-(methylamino)propanamido)acetyl)-N—((R)-1,2,3,4-tetrahydronaphthalen-1-yl)pyrrolidine-2-carboxamide], for which the IC50 at IRAK4 [1] (Table 4) worked out at 0.6 nM; at IRAK4 [1] (Table 5, multiple runs), 0.6 nM. Further, the Dmax at IRAK4 [2] (setting [3]) and on IRAK4 [2] (setting [4]) was 48% each time. The DC50 on IRAK4 [2] (Table 4) stood at 816 nM; at IRAK4 [2] (Table 5, multiple runs), 794 nM.

As for `CN[C@@H](C)C(=O)N[C@H](C(=O)N1CCC[C@H]1c1nc(C(=O)c2cccc(OCCOCCOCCOCCC(=O)N3CCN(c4nnc(-c5cnc(-c6ccc7cc(C#N)cnn67)cc5NC(C)C)s4)CC3)c2)cs1)C1CCCCC1` [Example 55, (S)—N—((S)-2-((S)-2-(4-(3-(2-(2-(2-(3-(4-(5-(6-(3-cyanopyrrolo[1,2-b]pyridazin-7-yl)-4-(isopropylamino)pyridin-3-yl)-1,3,4-thiadiazol-2-yl)piperazin-1-yl)-3-oxopropoxy)ethoxy)ethoxy)ethoxy)benzoyl)thiazol-2-yl)pyrrolidin-1-yl)-1-cyclohexyl-2-oxoethyl)-2-(methylamino)propanamide], the half-maximal inhibitory concentration (IC50) on IRAK4 [1] (Table 4) turned out to be 6.6 nM; on IRAK4 [1] (Table 5, multiple runs) it was 6.6 nM. Moreover, the Dmax at IRAK4 [2] (setting [3]) and on IRAK4 [2] (setting [4]) was 45% in each case. Besides, the DC50 at IRAK4 [2] (Table 4) came to 934 nM; at IRAK4 [2] (Table 5, multiple runs), 937 nM.

Consider `CNc1cc(-c2ccc3cc(C#N)cnn23)ncc1-c1nnc([C@H]2CC[C@H](NC(=O)CCC(=O)N[C@H](C(=O)N3C[C@H](O)C[C@H]3C(=O)N[C@@H](C)c3ccc(-c4scnc4C)cc3)C(C)(C)C)CC2)s1` [Example 56, N1-((1r,4S)-4-(5-(6-(3-cyanopyrrolo[1,2-b]pyridazin-7-yl)-4-(methylamino)pyridin-3-yl)-1,3,4-thiadiazol-2-yl)cyclohexyl)-N4—((S)-1-((2S,4R)-4-hydroxy-2-(((S)-1-(4-(4-methylthiazol-5-yl)phenyl)ethyl)carbamoyl)pyrrolidin-1-yl)-3,3-dimethyl-1-oxobutan-2-yl)succinamide], for which the half-inhibitory concentration (IC50) is 2.79 nM on IRAK4 [1] (Table 4) and 1.5 nM on IRAK4 [1] (Table 5, multiple runs). The Dmax on IRAK4 [2] (setting [3]) came to 115%; on IRAK4 [2] (setting [4]), 117%. Further, the DC50 on IRAK4 [2] (Table 4) was found to be 77.6 nM; at IRAK4 [2] (Table 5, multiple runs), 52.9 nM.

For `CNc1cc(-c2ccc3cc(C#N)cnn23)ncc1-c1nnc([C@H]2CC[C@H](NC(=O)CCCCC(=O)N[C@H](C(=O)N3C[C@H](O)C[C@H]3C(=O)N[C@@H](C)c3ccc(-c4scnc4C)cc3)C(C)(C)C)CC2)s1` [Example 57, N1-((1r,4S)-4-(5-(6-(3-cyanopyrrolo[1,2-b]pyridazin-7-yl)-4-(methylamino)pyridin-3-yl)-1,3,4-thiadiazol-2-yl)cyclohexyl)-N6—((S)-1-((2S,4R)-4-hydroxy-2-(((S)-1-(4-(4-methylthiazol-5-yl)phenyl)ethyl)carbamoyl)pyrrolidin-1-yl)-3,3-dimethyl-1-oxobutan-2-yl)adipamide], the IC50 is 2.9 nM on IRAK4 [1] (Table 4) and 2.9 nM at IRAK4 [1] (Table 5, multiple runs). Further, the Dmax at IRAK4 [2] (setting [3]) was determined as 107%; on IRAK4 [2] (setting [4]), 114%. Also, the DC50 on IRAK4 [2] (Table 4) stood at 89.6 nM; at IRAK4 [2] (Table 5, multiple runs) it was 81.4 nM.

For the compound `CNc1cc(-c2ccc3cc(C#N)cnn23)ncc1-c1nnc([C@H]2CC[C@H](NC(=O)CCOCCOc3cc(-c4scnc4C)ccc3CNC(=O)[C@@H]3C[C@@H](O)CN3C(=O)[C@@H](NC(=O)C3(F)CC3)C(C)(C)C)CC2)s1` [Example 58, (2S,4R)—N-(2-(2-(3-(((1r,4r)-4-(5-(6-(3-cyanopyrrolo[1,2-b]pyridazin-7-yl)-4-(methylamino)pyridin-3-yl)-1,3,4-thiadiazol-2-yl)cyclohexyl)amino)-3-oxopropoxy)ethoxy)-4-(4-methylthiazol-5-yl)benzyl)-1-((S)-2-(1-fluorocyclopropane-1-carboxamido)-3,3-dimethylbutanoyl)-4-hydroxypyrrolidine-2-carboxamide], the IC50 at IRAK4 [1] (Table 4) came to 5.26 nM; on IRAK4 [1] (Table 5, multiple runs) it was 5.3 nM. The Dmax worked out at 115% on IRAK4 [2] (setting [3]) and 118% on IRAK4 [2] (setting [4]). The DC50 at IRAK4 [2] (Table 4) was found to be 72.8 nM; on IRAK4 [2] (Table 5, multiple runs), 73.7 nM.

Turning to `CNc1cc(-c2ccc3cc(C#N)cnn23)ncc1-c1nnc([C@H]2CC[C@H](NC(=O)CCCC(=O)N[C@H](C(=O)N3C[C@H](O)C[C@H]3C(=O)NCc3ccc(-c4scnc4C)cc3)C(C)(C)C)CC2)s1` [Example 59, N1-((1r,4S)-4-(5-(6-(3-cyanopyrrolo[1,2-b]pyridazin-7-yl)-4-(methylamino)pyridin-3-yl)-1,3,4-thiadiazol-2-yl)cyclohexyl)-N5-((S)-1-((2S,4R)-4-hydroxy-2-((4-(4-methylthiazol-5-yl)benzyl)carbamoyl)pyrrolidin-1-yl)-3,3-dimethyl-1-oxobutan-2-yl)glutaramide], the IC50 on IRAK4 [1] (Table 4) was 0.93 nM; on IRAK4 [1] (Table 5, multiple runs), 0.9 nM. For the same compound, the Dmax at IRAK4 [2] (setting [3]) was 89%; on IRAK4 [2] (setting [4]), 101%. The 50% degradation concentration (DC50) amounted to 163 nM at IRAK4 [2] (Table 4) and 160 nM on IRAK4 [2] (Table 5, multiple runs).

Take `CNc1cc(-c2ccc3cc(C#N)cnn23)ncc1-c1nnc([C@H]2CC[C@H](NC(=O)CCCCCOc3cc(-c4scnc4C)ccc3CNC(=O)[C@@H]3C[C@@H](O)CN3C(=O)[C@@H](NC(=O)C3(F)CC3)C(C)(C)C)CC2)s1` [Example 60, (2S,4R)—N-(2-((6-(((1r,4r)-4-(5-(6-(3-cyanopyrrolo[1,2-b]pyridazin-7-yl)-4-(methylamino)pyridin-3-yl)-1,3,4-thiadiazol-2-yl)cyclohexyl)amino)-6-oxohexyl)oxy)-4-(4-methylthiazol-5-yl)benzyl)-1-((S)-2-(1-fluorocyclopropane-1-carboxamido)-3,3-dimethylbutanoyl)-4-hydroxypyrrolidine-2-carboxamide]: the half-maximal inhibitory concentration (IC50) at IRAK4 [1] (Table 4) turned out to be 3.55 nM; on IRAK4 [1] (Table 5, multiple runs) it was 3.5 nM. Besides, the Dmax turned out to be 105% at IRAK4 [2] (setting [3]) and 112% at IRAK4 [2] (setting [4]). For the same compound, the DC50 at IRAK4 [2] (Table 4) came to 159 nM; at IRAK4 [2] (Table 5, multiple runs), 111 nM.

With `CNc1cc(-c2ccc3cc(C#N)cnn23)ncc1-c1nnc([C@H]2CC[C@H](NC(=O)CCOCCC(=O)N[C@H](C(=O)N3C[C@H](O)C[C@H]3C(=O)N[C@@H](C)c3ccc(-c4scnc4C)cc3)C(C)(C)C)CC2)s1` [Example 61, (2S,4R)-1-((S)-2-(3-(3-(((1r,4S)-4-(5-(6-(3-cyanopyrrolo[1,2-b]pyridazin-7-yl)-4-(methylamino)pyridin-3-yl)-1,3,4-thiadiazol-2-yl)cyclohexyl)amino)-3-oxopropoxy)propanamido)-3,3-dimethylbutanoyl)-4-hydroxy-N—((S)-1-(4-(4-methylthiazol-5-yl)phenyl)ethyl)pyrrolidine-2-carboxamide], the IC50 on IRAK4 [1] (Table 4) was 3.98 nM; at IRAK4 [1] (Table 5, multiple runs) it was 4 nM. Also, the Dmax at IRAK4 [2] (setting [3]) amounted to 117%; at IRAK4 [2] (setting [4]), 121%. The DC50 stood at 591 nM on IRAK4 [2] (Table 4) and 399 nM on IRAK4 [2] (Table 5, multiple runs).
